Key:
Format in all cases: cell-based
αvβ1 = target: T1, αvβ1 (Homo sapiens, UniProt P05556+P06756); test: Cell Adhesion Assay αvβ1; details: A549-αvβ1 cells, ligand LAP-b1, 2 mM MgCl2; read-out: mean affinity (pIC50) αvβ1 (converted)
T1 construct: host or cells: A549-αvβ1
Procedure: (§1) The following cell lines are used, with ligands in brackets: K562-αvβ3 (LAP-b1), K562-αvβ5 (Vitronectin), K562-αvβ6 (LAP-b1), K562-αvβ8 (LAP-b1), A549-αvβ1 (LAP-b1). The divalent cation used to facilitate adhesion is 2 mM MgCl2. Adhesion is quantified by cell labelling with the fluorescent dye BCECF-AM (Life Technologies), where cell suspensions at 3×10^6cells/nnL are incubated with 0.33 uL/mL of 30 mM BCECF-AM at 37° C. for 10 minutes, then 50 μL/well are dispensed into the 96-well assay plate. At the assay conclusion cells that adhered are lysed using 50 μL/well of 0.5% Triton X-100 in H2O to release fluorescence. Fluorescence intensity is detected using an Envision® plate reader (Perkin Elmer). For active antagonists in the assay, data is fitted to a 4 parameter logistic equation for IC50 determinations.
(§2) Those of skill in the art will recognise that in vitro binding assays and cell-based assays for functional activity are subject to experimental variability.

αvβ6 = target: T2, αvβ6 (Homo sapiens, UniProt P06756+P18564); test: Cell Adhesion Assay αvβ6; details: K562-αvβ6 cells, ligand LAP-b1, 2 mM MgCl2; read-out: mean affinity (pIC50) αvβ6 (converted)
T2 construct: expressed in transfected cells; host or cells: K562-αvβ6
Procedure: as §1, §2

αvβ5 = target: T3, αvβ5 (Homo sapiens, UniProt P06756+P18084); test: Cell Adhesion Assay αvβ5; details: K562-αvβ5 cells, ligand Vitronectin, 2 mM MgCl2; read-out: mean affinity (pIC50) αvβ5 (converted)
T3 construct: expressed in transfected cells; host or cells: K562-αvβ5
Procedure: as §1, §2

αvβ3 = target: T4, αvβ3 (Homo sapiens, UniProt P05106+P06756); test: Cell Adhesion Assay αvβ3; details: K562-αvβ3 cells, ligand LAP-b1, 2 mM MgCl2; read-out: mean affinity (pIC50) αvβ3 (converted)
T4 construct: expressed in transfected cells; host or cells: K562-αvβ3
Procedure: as §1, §2

αvβ8 = target: T5, αvβ8 (Homo sapiens, UniProt P06756+P26012); test: Cell Adhesion Assay αvβ8; details: K562-αvβ8 cells, ligand LAP-b1, 2 mM MgCl2; read-out: mean affinity (pIC50) αvβ8 (converted)
T5 construct: expressed in transfected cells; host or cells: K562-αvβ8
Procedure: as §1, §2

T3 sequence (P06756 31-889 limits assumed): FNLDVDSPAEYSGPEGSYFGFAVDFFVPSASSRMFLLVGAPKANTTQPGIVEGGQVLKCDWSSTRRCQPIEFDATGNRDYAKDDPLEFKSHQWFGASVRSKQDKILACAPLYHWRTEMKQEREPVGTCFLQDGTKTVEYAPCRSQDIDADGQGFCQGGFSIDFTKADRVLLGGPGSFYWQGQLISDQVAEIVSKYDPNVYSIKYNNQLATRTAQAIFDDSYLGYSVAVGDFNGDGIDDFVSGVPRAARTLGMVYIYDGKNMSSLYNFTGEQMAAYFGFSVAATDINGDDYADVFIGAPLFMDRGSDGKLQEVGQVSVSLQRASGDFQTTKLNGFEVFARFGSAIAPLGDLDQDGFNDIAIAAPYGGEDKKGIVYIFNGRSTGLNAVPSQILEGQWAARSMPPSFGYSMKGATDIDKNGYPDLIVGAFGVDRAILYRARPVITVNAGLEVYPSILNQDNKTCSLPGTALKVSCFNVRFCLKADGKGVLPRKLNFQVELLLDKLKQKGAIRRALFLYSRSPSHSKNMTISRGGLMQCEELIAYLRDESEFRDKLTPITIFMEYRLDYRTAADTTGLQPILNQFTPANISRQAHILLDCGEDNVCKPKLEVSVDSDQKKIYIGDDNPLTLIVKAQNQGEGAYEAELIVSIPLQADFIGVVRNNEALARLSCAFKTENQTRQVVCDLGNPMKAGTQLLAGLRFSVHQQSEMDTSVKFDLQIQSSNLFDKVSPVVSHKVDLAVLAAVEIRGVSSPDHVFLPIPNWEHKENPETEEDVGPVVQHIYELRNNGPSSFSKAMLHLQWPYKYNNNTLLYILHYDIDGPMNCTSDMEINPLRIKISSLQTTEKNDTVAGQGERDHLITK
T3 sequence (P06756 891-1048 partner limits assumed): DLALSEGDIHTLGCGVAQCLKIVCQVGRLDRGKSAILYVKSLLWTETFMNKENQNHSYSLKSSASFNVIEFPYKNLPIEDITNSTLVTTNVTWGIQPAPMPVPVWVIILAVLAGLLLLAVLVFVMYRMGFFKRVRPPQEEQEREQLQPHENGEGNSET
T3 sequence (P18084 24-799): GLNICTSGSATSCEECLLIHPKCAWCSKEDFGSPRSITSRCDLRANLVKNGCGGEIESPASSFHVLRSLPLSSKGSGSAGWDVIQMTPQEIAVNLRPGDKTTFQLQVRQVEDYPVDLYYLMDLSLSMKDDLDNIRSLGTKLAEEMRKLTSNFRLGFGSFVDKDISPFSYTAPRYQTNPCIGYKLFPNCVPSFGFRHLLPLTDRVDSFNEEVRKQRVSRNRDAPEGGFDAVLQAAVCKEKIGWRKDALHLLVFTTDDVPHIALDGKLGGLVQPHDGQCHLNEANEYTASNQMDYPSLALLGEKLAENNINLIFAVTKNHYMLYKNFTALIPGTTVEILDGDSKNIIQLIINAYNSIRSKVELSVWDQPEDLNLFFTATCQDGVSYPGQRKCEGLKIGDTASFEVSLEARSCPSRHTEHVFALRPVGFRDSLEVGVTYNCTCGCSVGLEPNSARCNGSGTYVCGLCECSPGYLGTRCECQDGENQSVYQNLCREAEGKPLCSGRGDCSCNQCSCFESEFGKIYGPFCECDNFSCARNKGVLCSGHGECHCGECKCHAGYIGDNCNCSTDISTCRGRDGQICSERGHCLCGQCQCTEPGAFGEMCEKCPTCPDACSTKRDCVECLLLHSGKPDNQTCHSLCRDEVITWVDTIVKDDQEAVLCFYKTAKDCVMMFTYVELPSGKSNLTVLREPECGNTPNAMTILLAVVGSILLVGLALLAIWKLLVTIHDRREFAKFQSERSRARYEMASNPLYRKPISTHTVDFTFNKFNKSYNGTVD
T2 sequence (P06756 31-889 limits assumed): as the sequence (P06756 31-889 limits assumed) above
T2 sequence (P06756 891-1048 partner limits assumed): as the sequence (P06756 891-1048 partner limits assumed) above
T2 sequence (P18564 22-788): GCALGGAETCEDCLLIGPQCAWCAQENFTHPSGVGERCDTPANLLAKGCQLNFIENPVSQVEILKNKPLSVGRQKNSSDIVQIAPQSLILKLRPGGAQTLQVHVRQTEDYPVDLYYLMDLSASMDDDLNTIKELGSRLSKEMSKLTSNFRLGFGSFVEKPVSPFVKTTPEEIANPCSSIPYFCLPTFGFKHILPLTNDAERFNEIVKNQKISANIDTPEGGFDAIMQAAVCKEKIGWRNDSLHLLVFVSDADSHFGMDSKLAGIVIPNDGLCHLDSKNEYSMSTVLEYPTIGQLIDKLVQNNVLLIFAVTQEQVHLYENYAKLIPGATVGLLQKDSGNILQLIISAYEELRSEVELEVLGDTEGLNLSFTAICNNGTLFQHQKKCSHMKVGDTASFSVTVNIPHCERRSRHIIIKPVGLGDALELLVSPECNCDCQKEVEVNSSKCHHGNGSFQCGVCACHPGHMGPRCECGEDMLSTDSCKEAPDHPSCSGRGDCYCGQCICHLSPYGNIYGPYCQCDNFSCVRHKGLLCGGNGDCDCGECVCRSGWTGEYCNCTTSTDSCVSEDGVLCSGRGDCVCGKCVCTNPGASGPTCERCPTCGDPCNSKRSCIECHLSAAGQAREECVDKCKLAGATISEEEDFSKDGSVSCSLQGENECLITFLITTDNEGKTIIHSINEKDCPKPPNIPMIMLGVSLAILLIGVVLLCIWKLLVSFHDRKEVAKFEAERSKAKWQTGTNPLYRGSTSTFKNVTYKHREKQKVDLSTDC
T5 sequence (P06756 31-889 limits assumed): as the sequence (P06756 31-889 limits assumed) above
T5 sequence (P06756 891-1048 partner limits assumed): as the sequence (P06756 891-1048 partner limits assumed) above
T5 sequence (P26012 43-769): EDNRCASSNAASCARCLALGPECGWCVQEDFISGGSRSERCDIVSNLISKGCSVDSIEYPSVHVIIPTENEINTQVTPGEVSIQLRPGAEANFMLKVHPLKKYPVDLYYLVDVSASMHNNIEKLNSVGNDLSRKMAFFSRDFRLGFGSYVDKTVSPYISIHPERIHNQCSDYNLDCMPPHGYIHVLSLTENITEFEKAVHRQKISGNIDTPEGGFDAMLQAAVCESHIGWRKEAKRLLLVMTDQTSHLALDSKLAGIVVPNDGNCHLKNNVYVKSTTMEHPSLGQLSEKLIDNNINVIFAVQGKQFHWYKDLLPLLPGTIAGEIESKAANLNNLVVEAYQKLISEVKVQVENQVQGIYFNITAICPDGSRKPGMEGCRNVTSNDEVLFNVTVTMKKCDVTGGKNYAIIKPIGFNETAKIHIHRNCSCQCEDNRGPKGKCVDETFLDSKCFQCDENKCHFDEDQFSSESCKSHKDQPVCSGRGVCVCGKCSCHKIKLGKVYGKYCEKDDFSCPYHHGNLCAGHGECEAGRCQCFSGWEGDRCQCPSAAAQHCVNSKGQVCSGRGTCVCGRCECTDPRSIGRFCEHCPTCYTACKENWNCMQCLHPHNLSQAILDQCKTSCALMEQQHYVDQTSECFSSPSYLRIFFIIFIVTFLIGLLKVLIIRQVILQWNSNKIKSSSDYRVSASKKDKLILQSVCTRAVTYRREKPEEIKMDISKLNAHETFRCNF
T4 sequence (P06756 31-889 limits assumed): as the sequence (P06756 31-889 limits assumed) above
T4 sequence (P06756 891-1048 partner limits assumed): as the sequence (P06756 891-1048 partner limits assumed) above
T4 sequence (P05106 27-788): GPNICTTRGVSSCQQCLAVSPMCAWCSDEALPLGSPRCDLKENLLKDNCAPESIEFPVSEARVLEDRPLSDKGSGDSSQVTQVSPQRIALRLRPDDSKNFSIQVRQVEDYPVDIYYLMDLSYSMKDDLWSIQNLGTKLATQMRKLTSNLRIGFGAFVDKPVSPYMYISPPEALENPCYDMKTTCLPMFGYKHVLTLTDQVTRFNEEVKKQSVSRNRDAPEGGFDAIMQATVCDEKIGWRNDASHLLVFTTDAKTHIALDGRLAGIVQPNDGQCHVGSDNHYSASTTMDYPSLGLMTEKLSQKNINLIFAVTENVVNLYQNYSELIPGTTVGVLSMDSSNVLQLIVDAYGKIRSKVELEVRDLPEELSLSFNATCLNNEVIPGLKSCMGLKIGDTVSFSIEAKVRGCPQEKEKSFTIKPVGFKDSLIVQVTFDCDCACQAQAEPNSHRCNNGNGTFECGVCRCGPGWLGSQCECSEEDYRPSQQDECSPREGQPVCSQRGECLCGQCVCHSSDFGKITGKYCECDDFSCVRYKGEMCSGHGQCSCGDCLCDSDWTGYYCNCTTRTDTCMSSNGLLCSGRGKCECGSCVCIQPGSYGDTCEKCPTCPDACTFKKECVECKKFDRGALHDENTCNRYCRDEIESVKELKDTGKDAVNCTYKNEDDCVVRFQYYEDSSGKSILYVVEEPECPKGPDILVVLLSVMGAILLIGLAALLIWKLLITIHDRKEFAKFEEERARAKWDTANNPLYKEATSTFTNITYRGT

Row | Structure (SMILES) | IC50 (αvβ1) [µM] | IC50 (αvβ6) [µM] | IC50 (αvβ5) [µM] | IC50 (αvβ3) [µM] | IC50 (αvβ8) [µM]
1 | CO[C@H](C)COc1cccc([C@H](CC(=O)O)CN2CC[C@@H](CCc3ccc4c(n3)NCCC4)C2)c1 [Example 2, (S)-3-(3-((R)-2-methoxypropoxy)phenyl)-4-((R)-3-(2-(5,6,7,8-tetrahydro-1,8-naphthyridin-2-yl)ethyl)pyrrolidin-1-yl)butanoic acid] | 0.1 | 0.00251 | 0.0158 | 0.0631 | 
2 | COCC(C)(C)Oc1cccc([C@H](CC(=O)O)CN2CC[C@@H](CCc3ccc4c(n3)NCCC4)C2)c1 [Example 11] | 0.0501 |  | 0.0631 | 0.316 | 0.0158
3 | COCCOc1cc(OCCF)cc(C(CC(=O)O)CN2CC[C@@H](CCc3ccc4c(n3)NCCC4)C2)c1 (stereo partly drawn) [Example 18, 3-(3-(2-Fluoroethoxy)-5-(2-methoxyethoxy)phenyl)-4-((R)-3-(2-(5,6,7,8-tetrahydro-1,8-naphthyridin-2-yl)ethyl)pyrrolidin-1-yl)butanoic acid] | 0.2 | 0.00501 |  | 0.398 | 0.0251
4 | COC(C)(C)COc1cccc([C@H](CC(=O)O)CN2CC[C@@H](CCc3ccc4c(n3)NCCC4)C2)c1 [Example 4, (S)-3-(3-(2-methoxy-2-methylpropoxy)phenyl)-4-((R)-3-(2-(5,6,7,8-tetrahydro-1,8-naphthyridin-2-yl)ethyl)pyrrolidin-1-yl)butanoic acid] | 0.158 |  |  | 0.2 | 0.0158
5 | O=C(O)CC(CN1CC[C@@H](CCc2ccc3c(n2)NCCC3)C1)c1cccc(OCC2COC2)c1 (stereo partly drawn) [Example 20, 3-(3-(Oxetan-3-ylmethoxy)phenyl)-4-((R)-3-(2-(5,6,7,8-tetrahydro-1,8-naphthyridin-2-yl)ethyl)pyrrolidin-1-yl)butanoic acid] |  | 0.00794 |  | 0.398 | 0.02
6 | CO[C@@H](C)COc1cccc([C@H](CC(=O)O)CN2CC[C@@H](CCc3ccc4c(n3)NCCC4)C2)c1 [Example 3, (S)-3-(3-((S)-2-methoxypropoxy)phenyl)-4-((R)-3-(2-(5,6,7,8-tetrahydro-1,8-naphthyridin-2-yl)ethyl)pyrrolidin-1-yl)butanoic acid] | 0.126 | 0.00251 | 0.0158 |  | 0.0158
7 | O=C(O)C[C@H](CN1CC[C@@H](CCc2ccc3c(n2)NCCC3)C1)c1cccc(OC[C@@H]2CCCO2)c1 [Example 15, (S)-4-((R)-3-(2-(5,6,7,8-tetrahydro-1,8-naphthyridin-2-yl)ethyl)pyrrolidin-1-yl)-3-(3-(((S)-tetra hydrofuran-2-yl)methoxy)phenyl)butanoic acid] | 0.501 | 0.00501 | 0.0398 | 0.1 | 0.0398
8 | O=C(O)C[C@H](CN1CC[C@@H](CCc2ccc3c(n2)NCCC3)C1)c1cccc(OC[C@H]2CCCO2)c1 [Example 14, (S)-4-((R)-3-(2-(5,6,7,8-Tetrahydro-1,8-naphthyridin-2-yl)ethyl)pyrrolidin-1-yl)-3-(3-(((R)-tetrahydrofuran-2-yl)methoxy)phenyl)butanoic acid] | 0.398 | 0.00501 | 0.0398 | 0.0794 | 0.02
9 | COCCOc1cc(OCCOC)cc([C@H](CC(=O)O)CN2CC[C@@H](CCc3ccc4c(n3)NCCC4)C2)c1 [Example 8, (S)-3-(3,5-Bis(2-methoxyethoxy)phenyl)-4-((R)-3-(2-(5,6,7,8-tetrahydro-1,8-naphthyridin-2-yl)ethyl)pyrrolidin-1-yl)butanoic acid] | 0.2 | 0.00316 | 0.0316 | 0.126 | 0.02
10 | COCCCOc1cccc(C(CC(=O)O)CN2CC[C@@H](CCc3ccc4c(n3)NCCC4)C2)c1 (stereo partly drawn) [Example 19, 3-(3-(3-Methoxypropoxy)phenyl)-4-((R)-3-(2-(5,6,7,8-tetrahydro-1,8-naphthyridin-2-yl)ethyl)pyrrolidin-1-yl)butanoic acid] |  | 0.01 | 0.0631 | 0.158 | 0.0126
11 | COCCOc1cccc([C@H](CC(=O)O)CN2CC[C@@H](CCc3ccc4c(n3)NCCC4)C2)c1 [Example 1, (S)-3-(3-(2-methoxyethoxy)phenyl)-4-((R)-3-(2-(5,6,7,8-tetrahydro-1,8-naphthyridin-2-yl)ethyl)pyrrolidin-1-yl)butanoic acid] | 0.158 | 0.00316 | 0.01 |  | 
12 | COCC(COC)Oc1cccc(C(CC(=O)O)CN2CC[C@@H](CCc3ccc4c(n3)NCCC4)C2)c1 (stereo partly drawn) [Example 17, 3-(3-((1,3-Dimethoxypropan-2-yl)oxy)phenyl)-4-((R)-3-(2-(5,6,7,8-tetrahydro-1,8-naphthyridin-2-yl)ethyl)pyrrolidin-1-yl)butanoic acid] |  | 0.0126 |  | 0.398 | 0.02
13 | COC[C@@H](C)Oc1cccc([C@H](CC(=O)O)CN2CC[C@@H](CCc3ccc4c(n3)NCCC4)C2)c1 [Example 12, (S)-3-(3-(((R)-1-methoxypropan-2-yl)oxy)phenyl)-4-((R)-3-(2-(5,6,7,8-tetrahydro-1,8-naphthyridin-2-yl)ethyl)pyrrolidin-1-yl)butanoic acid] |  |  | 0.0631 | 0.251 | 
14 | COCCOc1ccc(F)c([C@H](CC(=O)O)CN2CC[C@@H](CCc3ccc4c(n3)NCCC4)C2)c1 [Example 16, (S)-3-(2-Fluoro-5-(2-methoxyethoxy)phenyl)-4-((R)-3-(2-(5,6,7,8-tetrahydro-1,8-naphthyridin-2-yl)ethyl)pyrrolidin-1-yl)butanoic acid] |  | 0.00794 |  |  | 0.1
15 | CC(C)OCCOc1cccc([C@H](CC(=O)O)CN2CC[C@@H](CCc3ccc4c(n3)NCCC4)C2)c1 [Example 13, (S)-3-(3-(2-Isopropoxyethoxy)phenyl)-4-((R)-3-(2-(5,6,7,8-tetrahydro-1,8-naphthyridin-2-yl)ethyl)pyrrolidin-1-yl)butanoic acid] |  | 0.01 | 0.0316 | 0.1 | 0.02
16 | COC[C@H](C)Oc1cccc(C(CC(=O)O)CN2CC[C@@H](CCc3ccc4c(n3)NCCC4)C2)c1 (single isomer, unassigned) [Example 5] | 0.251 |  |  | 3.16 | 

From patent publication US10487080B2, “Naphthyridines as integrin antagonists” (GlaxoSmithKline Intellectual Property Development Limited, priority 2016, dated 2019)
